We go through 90 compounds from a melting point compilation (Tetko et al.; mined from patent text by program, amines drawn as free bases though some values may be those of a salt).

Usually melting point stands for the temperature of the solid-liquid transition.

Compound `CC=C(C)C(=O)c1c(O)c2c(c3c(CCC)cc(=O)oc13)OC(C)(C)C=C2` yielded a melting point of 110 to 112 °C.
`CCCOc1nc2cc(Cn3ccnc3)ccc2nc1C` returned a melting point of 85.5 °C.
`CC1CCCCN1C(=O)C=Cc1ccc(F)cc1` (stereo not given) registered a melting point of 114 to 116 °C.
The value for `CC(=O)Nc1ccc(Cc2cc(C)c(C(=O)c3ccc(Cl)cc3)n2C)nc1` was 194 to 195 °C.
As for `CCCCCCCCCCCCCCCC(=O)CC(=O)OC`, the melting point is 40 to 41 °C.
`CCn1ncc2c(NCCc3ccccc3)c3ccc(OC)cc3nc21` displayed a melting point of 163 to 164 °C.
For the compound `Nc1ccccc1SCn1ccccc1=O`, the melting point was in the range of 130 to 133 °C.
The figure for `COc1ccc(C(=O)c2noc(CC(=O)O)n2)cc1` is 126 to 127 °C; for `CCc1c(C)nc2c(O)cccn2c1=O` it is 128 °C.
Take `CCOCc1nnc2c(C(F)(F)F)c(CN[C@H]3CC[C@@H](c4ccccc4)CC3)ccn12`: the melting point was 137 °C.
The value for `COCOc1cc(C=O)ccc1OCc1nc(-c2ccco2)oc1C` was 102 to 103 °C.
The figure for `O=c1[nH]c2c(O)cccc2n1CCN1CCN(c2cccc(C(F)(F)F)c2)CC1` is 110 °C; for `COc1ccc(-c2cc3c(n2-c2ccc(O)c(C(=O)O)c2)CCCC3)cc1` it is 219 to 221 °C.
`CC(=O)SCCCC1(C)C(=O)N2CCCC(C(=O)O)N2C1=O` (stereo not given): the melting point was in the range of 160 to 161 °C.
The compound `COc1ccc(C(=CC#N)c2ccc3ccccc3c2)cc1OC` gave a melting point of 121 to 123 °C.
The value for `Cc1ccc(CSc2nc3cscc3n2C(=O)OC(C)(C)C)nc1` was 115 to 117 °C.
The figure for `[N-]=[N+]=N[C@H](C(=O)O)C12CC3CC(CC(C3)C1)C2` is 110 to 112 °C; for `CCCCc1oc2ccc(C(=O)OC(C)C)cc2c1C(=O)c1ccc(OS(=O)(=O)C(F)(F)F)cc1` it is 100 to 101 °C.
On to `Nc1c(F)c(F)c(F)c(F)c1NC(=S)Nc1c(Cl)cccc1Cl`, for which the melting point is over 300 °C.
With `CCOCCOC(=O)c1nc2ccc(COc3cccc(OCc4ccc5ccccc5n4)c3)cc2o1`, the melting point fell in the range of 84 to 85 °C.
`CC(=O)Nc1ccc(-n2c(-c3ccccc3)cc3c2CCCC3)cc1C(=O)O` registered a melting point of 192 to 194 °C.
As for `CC(C)n1nnnc1-c1ccc(N)c([N+](=O)[O-])c1`, the melting point was in the range of 126 to 128 °C.
In the case of `CCCC(=O)NC1=NN(c2cccc(Cl)c2)CC1`, the melting point was in the range of 168 to 169 °C.
Take `CCOC(=O)c1c(N2CCN(C(=O)c3cccs3)CC2)c2cc(Cl)cnc2n(Cc2cccc(F)c2)c1=O`: the melting point was found to be 186 °C.
Take `Cc1nc(N2CCN(Cc3ccccc3)C2=O)sc1C(=O)O`: the melting point lay within 248 to 249 °C.
`CN(Cc1ccccc1)c1cc(Oc2cccc(C(F)(F)F)c2)nc(C(=O)O)c1` showed a melting point of 80 to 82 °C.
The figure for `COc1cc(C(=O)c2ccnc3ccccc23)cc([N+](=O)[O-])c1O` is 246 to 248 °C; for `O=C1CCC(CSc2ccccc2)C(=O)N1CN1CCCCC1` (stereo not given) it is 63 to 66 °C; for `CN1Cc2c(Br)ncn2-c2cccc(Cl)c2C1=O` it is 178 to 179 °C.
`CCOC(=O)c1ccc(OCC)c(-c2ncc(C(=O)OCC)c(=O)[nH]2)c1` showed a melting point of 180 to 182 °C.
The figure for `Brc1ccc2c3c(cccc13)C(NCCCCCCCCCCCCn1ccnc1)=N2` is 111 to 116 °C; for `Oc1c(Cc2ccccc2)cc(Br)c2ccccc12` it is 123 to 125 °C; for `COc1cc(OC)c(OC)cc1C=C1CCc2c1oc1ccc(C(=O)O)cc1c2=O` it is 311 to 313 °C.
The figure for `Cc1ccc(C(C)N(O)C(N)=O)cc1` (stereo not given) is 134 to 135 °C; for `O=C(O)CN1CCN(c2ccnc(-c3nc(=O)c4ccccc4s3)c2)C1=O` it is 271 to 273 °C; for `CC12CCC3C4CCC(=O)C=C4CCC3C1CCC2=O` (stereo not given) it is 163 to 169 °C.
The value for `CN(C(=O)CCS(C)=O)c1nnc(-c2cccnc2)s1` (stereo not given) was 138 to 140 °C.
Consider `CCOC(=O)C(=CNc1ccc(F)c(F)c1OCC(C)OS(=O)(=O)c1ccc(C)cc1)C(=O)OCC` (stereo not given), for which the melting point lay within 61 to 62 °C.
The figure for `CS(=O)(=O)N1CCC(CCC(=O)c2ccc3c(c2)CCN(Cc2ccccc2)CC3)CC1` is 134 to 137 °C; for `Nc1cccc(-c2ccc(CCNCCCCCc3ccccc3)cc2)n1` it is 60 to 70 °C; for `O=C(Nc1ccc(Cl)c(C(F)(F)F)c1)N[C@H]1CC[C@H](Oc2ccc(C(F)(F)F)cn2)CC1` it is 176 to 178 °C.
The value for `COc1nc2cc([N+](=O)[O-])c(C)c(C(=O)N(C)CC(=O)OC(C)(C)C)c2nc1OC` was 102 to 105 °C.
With `CCCc1nc(Sc2ccc(OC)cc2)c(CC(=O)O)n1Cc1cc2c(cc1Cl)OCO2`, the melting point is 187 °C.
The compound `O=C1N(Cc2ccccc2)C2CSC(O)C2N1Cc1ccccc1` (stereo not given) came in with a melting point of 163 to 164 °C.
The figure for `CC(C)(C1CCCCC1)C(NC(=O)c1ccc(Cl)cc1)NC(=N[N+](=O)[O-])Nc1cccnc1` (stereo not given) is 201 to 203 °C; for `CCSC1Oc2ccccc2C(=S)C1(C#N)C(N)=O` (stereo not given) it is 165 to 168 °C; for `CNc1nc2ccccc2n2cnnc12` it is over 300 °C.
The figure for `CC1(C)CC(=O)c2c(-c3ccccc3)sc(C#N)c2C1` is 100 to 103 °C; for `CCOc1c(C(N)=O)n(-c2ccccc2)c2ccc(OC)cc12` it is 143 to 144 °C; for `COc1cccc2c1C(NC1=Nc3ccc(Nc4nnc(C)o4)cc3CO1)CC2` (stereo not given) it is 162 °C.
As for `CC(Oc1ccc(N)c([N+](=O)[O-])c1)c1cc(F)ccc1Cl` (stereo not given), the melting point came to 110 °C.
Take `Clc1ccc2c(c1)CCC(c1ccccc1)S2` (stereo not given): the melting point lay in the range of 91 to 93 °C.
`O=C1CC2C(CC(OC(=O)c3ccccc3)C2C=CC(O)C2(F)CCCC2)O1` (stereo not given) displayed a melting point of 73 to 74 °C.
The figure for `COc1cccc2c1CC(C(=O)NCCOc1ccc(C(=O)O)cc1)N2S(=O)(=O)c1ccc(-c2ccc(F)cc2)cc1` (stereo not given) is 113 °C.
The value for `C=Cc1cnc(-c2ncccn2)nc1` was 150 °C.
The value for `O=C(O)CCCC#CCc1c(-c2ccccc2)nc(-c2ccccc2)n1-c1ccccc1` was 144 to 145 °C; that for `C=CCc1cc(C(=O)c2ccccc2)c(O)cc1OCCCCC#N` was 60 to 62 °C.
In turn, `CC(C)Cc1nc2cc(C(c3cccc(Cl)c3)n3ccnc3)ccc2[nH]c1=O` (stereo not given) showed a melting point of 210 °C.
In turn, `O=C1CCC2=C1C(c1cc(Br)cs1)C1=C(CCS1)N2` (stereo not given) registered a melting point of 254 to 255 °C.
The value for `COc1cccc(COc2ncc(F)c(NN)n2)c1` was 103 to 106 °C; that for `CC(=NNC(=O)c1ccccc1C)c1ccncc1` was 187 °C; that for `NC(=O)c1ccc(C(Cc2ccc(F)cc2)C(=O)Nc2nc3ccccc3o2)cc1` (stereo not given) was 137 to 139 °C.
The value for `O=C(O)c1cnc(Cl)cc1C(F)(F)F` was 115 to 117 °C; that for `Cc1ccc(CO)nc1-c1ccccn1` was 51 to 53 °C; that for `CCOC(=O)c1ccc(C#CCOc2cc3c(cc2C=O)C(C)(C)CCC3(C)C)cc1` was 114 to 115 °C.
Compound `O=C(O)CCOc1cccc(F)c1` showed a melting point of 90 to 91 °C.
Turning to `CCC(CC)Nc1nc(C)nc(Nc2c(C)cc(C)nc2C)c1[N+](=O)[O-]`, the melting point was 151 to 152 °C.
The figure for `Cc1ccc(C(=O)c2ccc(CC#N)n2C)cc1` is 102 to 105 °C; for `CCOC(=O)N(CC)c1cccc(-c2ccnc3ccnn23)c1` it is 79 to 81 °C.
The value for `O=C(CCl)Nc1cc(C(=O)O)cc(OCc2ccccc2)c1C(=O)c1ccccc1` was 214 to 216 °C.
The value for `O=Cc1ccc(-c2ccc(-c3ccc(C=O)o3)cc2)cc1` was 173 to 174 °C; that for `Cc1cc(CN(C)c2cc(-c3ccc(Cl)cc3)nn2C)cc(C)c1OC(C)(C)C(=O)O` was 158 °C.
For `O=[N+]([O-])c1cc(Cl)ccc1-n1cccc1`, the melting point is 55 to 56 °C.
The value for `O=C(C=NO)c1cccc(Cl)c1Cl` was 109 °C; that for `CC(=O)SC[C@H](NC(=O)C(C)C)C(=O)NCCSC(=O)c1ccccc1` was 174 to 176 °C.
The figure for `CCCn1nc(C(N)=O)cc1CC` is 105 to 106 °C; for `COc1ccc(C(=O)Nc2ccc3ccc(Oc4cccc(F)c4)nc3n2)cc1` it is 151 °C.
In turn, `Cc1oc2ccccc2c1C(=O)N(Cc1ccccc1)Cc1ccc2cc(O)ccc2c1` had a melting point of 190 to 193 °C.
The figure for `CCN(C(=O)CC(OC)(C(F)(F)F)C(F)(F)F)c1cn(-c2cccnc2)nc1C` is 83 to 86 °C; for `CC(CCNC(=O)c1cc2cc(Cl)ccc2[nH]1)n1ccnc1` (stereo not given) it is 210 °C.
The value for `COc1ccc2c(c1)c(C)cc(=O)n2-c1ccc(Cl)cc1` was 234 to 235 °C; that for `CC(=O)Nc1cc(CN2CCCCC2)c(O)c2c1CCCC2` was 166 to 167 °C.
The figure for `O=c1ccn(CCO)c(C(O)c2ccc(Br)cc2)c1O` (stereo not given) is 189 to 193 °C; for `CCCCc1nc2c(c(C)c(C)n3nnnc23)n1CC(C)(C)N` it is 144 to 147 °C; for `C=CCC1Cn2c(ncc(C(=O)O)c2=O)-c2cc(OC)ccc21` (stereo not given) it is 128 to 130 °C.
In turn, `CON=C(C(=O)OC)c1ccccc1ON=C(C)c1cccc(C)c1` showed a melting point of 90 °C.
Take `CSc1ccc(C(=O)Nc2ccccc2)cc1[N+](=O)[O-]`: the melting point lay in the range of 219 to 222 °C.
The figure for `O=C(O)c1c2c(nc3ccc(F)cc13)-c1ccc(-c3ccc(F)cc3F)cc1CCC2` is over 300 °C; for `COc1cc(C(=O)N(C(C)C)C2CCCCC2)ccc1Cn1ccc2ncnc-2c1C` it is 185 to 187 °C; for `Cc1ccc(-n2nc(C(C)(C)C)cc2NC(=O)c2cccc3cc(Oc4cc(Cl)ncn4)ccc23)cc1` it is 163 to 164 °C.
